Reference: PubChem BioAssay AID463206 (Broad Institute, 2010)
Several values for one entry are separate records, joined by “and”; a condition that tells them apart may be missing. Identical values can stand only once. Activity calls are given as the source filed them.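 The calls were made as follows: active = caspase luminescence falls with dose and the half-maximal concentration AC50 from the fitted curve is at or below a set limit; inconclusive = flat fit at 30 to 70% signal loss, or invalid fit; inactive = AC50 above the limit, or signal rises instead.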

system: INS-1E cytokine-induced caspase-3/7, Caspase-Glo luminescence, 48 h; assay: inhibitors of cytokine-induced caspase-3/7 activity, dose response, orthogonal assay for beta-cell apoptosis protection project, INS-1E rat cells, luminescence (AID 463206)

Compound	AC50
O=C(CSc1nc2ccccc2c(=O)n1-c1ccccc1)N1CCc2ccccc2C1	> 26 µM (inactive)
CC(=O)Oc1c(I)cc(I)cc1C(=O)Nc1ccc(Cl)cc1	> 26 µM (inactive)
CCn1c(C)nc2cc(-c3nnc(-c4c(-c5ccccc5)noc4C)o3)ccc21	> 26 µM (inactive)
O=C(Oc1c(CN2CCOCC2)cc(Cl)c2cccnc12)c1cccs1	> 26 µM (inactive)
Cc1ccccc1OCCn1c(C)nc2ccccc21	> 26 µM (inactive)
Cc1ccc(F)c([C@H]2C3C=CCC(c4ccccc4)C3C(=O)N2Cc2ccccc2)c1 (stereo partly specified)	> 26 µM (inactive)
CCOC(=O)C1CCN(C(=O)c2c(C)oc3c2C(=O)c2ccccc2C3=O)CC1	> 26 µM (inactive)
Cc1ccc(C(=O)Nc2nc(-c3ccccn3)cs2)cc1S(=O)(=O)N1CCOCC1	> 26 µM (inactive)
CC[N+]1=C(C)C(C)(C)c2cc(C)ccc21	> 26 µM (inactive)
Nc1nc(Cl)cc(N2CCC(c3cc(-c4ccc(Cl)cc4)n[nH]3)CC2)n1	> 26 µM (inactive)
CCOC(=O)c1cnc(-n2nc(C)cc2C)nc1Nc1ccc(O)cc1	> 26 µM (inactive)
CC(=O)c1c(C)n(CC(=O)NCc2ccco2)c2ccccc12	> 26 µM (inactive)
C[C@H](CO)N1C[C@H](C)[C@@H](CN(C)C(=O)NC2CCCCC2)Oc2c(NC(=O)Nc3ccc(C(F)(F)F)cc3)cccc2C1=O	> 26 µM (inactive)
COc1cccc(/C=N/NC(=O)c2c(C)nc3ccc(Br)cn23)c1O	> 26 µM (inactive)
CCc1ccc2c(c1)C1(C(=O)N2)N2CCCC2C(C(=O)c2ccc3ccccc3c2)C12C(=O)Nc1ccccc12 (stereo unspecified)	> 26 µM (inactive)
COc1ccc(-c2cn(-c3ccc(OC)cc3)c3[n+]2-c2ccccc2CC3)cc1	> 26 µM (inactive)
O=C(Nc1cccnc1)c1cccs1	> 26 µM (inactive)
Oc1ccccc1/C=N/Nc1ncc(Br)cn1	> 26 µM (inactive)
Cc1ccc2oc(-c3ccc(NC(=O)c4cccnc4)cc3)nc2c1	> 26 µM (inactive)
CCn1c(C)c(C)c2cc(C(=O)N3CCc4ccccc4C3)ccc21	> 26 µM (inactive)
O=C(N/N=C/c1c(O)ccc2ccccc12)c1ccc(Br)o1	> 26 µM (inactive)
COc1ccc(S(=O)(=O)Nc2ccc(O)c3ccccc23)cc1	> 26 µM (inactive)
CC1CCc2c(sc3nc(C(C)(C)C)nc(N4CCN(C(=O)CCl)CC4)c23)C1 (stereo unspecified)	> 26 µM (inactive)
CCN1CCN(Cc2ccc(NC(=O)c3ccc(C)c(NC(=O)C(=O)c4c[nH]c5ccccc45)c3)cc2C(F)(F)F)CC1	> 12 µM (inactive) and > 26 µM (inactive)

Compound	AC50
O=[N+]([O-])c1ccc(-[n+]2ccc3ccccc3c2)c([N+](=O)[O-])c1	> 26 µM (inactive)
CCn1c(-c2ccc(C)cc2)nn(CC(=O)NCCc2ccccc2)c1=S	> 26 µM (inactive)
O=C(NNC(=O)C12CC3CC(CC(C3)C1)C2)c1ccccn1	> 26 µM (inactive)
COc1cc(/C=N/NC(=O)c2cccnc2)ccc1OC(=O)c1cc(OC)c(OC)c(OC)c1	> 26 µM (inactive)
COc1ccc(C2=NNC(=Nc3cc(S(=O)(=O)N(C)C)ccc3C)SC2)c(OC)c1	24.8 µM
OCCN1CCN(C2Cc3cc(Cl)ccc3Sc3ccc(Cl)cc32)CC1 (stereo unspecified) (tested in a mixture with another compound)	> 26 µM (inactive)
Cc1ccc2c(c1)N(C)/C(=C/c1cccc[n+]1CCO)S2	> 26 µM (inactive)
FC(F)(F)c1ccc(CN2C[C@@H]3C(c4ccc(C(F)(F)F)cc4)C4(c5cccnc5)CC3(C4)[C@H]2c2ccccc2)cc1 (stereo partly specified)	> 26 µM (inactive)
O=C(N/N=C/c1cc(Cl)ccc1O)c1cccnc1	> 26 µM (inactive)
O=C(Cc1ccc(Cl)cc1)c1c[nH]c(C(=O)NCc2cccnc2)c1	> 26 µM (inactive)
Cc1cc(S(=O)(=O)NCc2ccncc2)c(C)cc1Br	> 26 µM (inactive)
COc1ccccc1/C=N/OCc1cc(C(C)=O)ccc1OC	> 26 µM (inactive)
CCOC(=O)CC1CCCCN1C(=O)c1cc(COc2cccc3cnccc23)on1 (stereo unspecified)	> 26 µM (inactive)
Cc1csc2nc(NC(=O)c3ccccc3)sc(=O)c12	> 26 µM (inactive)
CN(C)C1=NC[C@H](Cc2ccccc2)N1CCCC1CCCCC1	> 26 µM (inactive)
O=C(Nc1ccc(S(=O)(=O)N2CCOCC2)cc1)c1ccc([N+](=O)[O-])s1	> 26 µM (inactive)
Cc1ccc(-c2cn(-c3ccc(SC(F)F)cc3)c3[n+]2CCC3)cc1	> 26 µM (inactive)
Cc1sc2ncnc(N3CCN(S(=O)(=O)c4ccccc4)CC3)c2c1C	> 26 µM (inactive)
CCOC(=O)c1c(C)[nH]c(C(=O)N/N=C\c2ccccc2O)c1C	> 26 µM (inactive)
Cc1ccc(N2C(=O)NC(=O)/C(=C\C=C\c3ccco3)C2=O)cc1C	> 26 µM (inactive)
CCN(CC)CCNc1ncnc2c1sc1nc(N3CCOCC3)c3c(c12)CC(C)(C)SC3	23.6 µM
Cc1ccc2c(c1)[nH]c1c(N3CCN(Cc4ccccc4)CC3)ncnc12	> 26 µM (inactive)
Cc1cc(C)n(-c2nc3ccccc3c(=O)n2OCC#N)n1	> 26 µM (inactive)
CCOC(=O)C(C(C)=O)c1c(Br)c(O)c(O)c2c(C(=O)c3ccc(C)cc3)coc12 (stereo unspecified)	> 26 µM (inactive)

Compound	AC50
O=C(O)CCCC(=O)Nc1ccc(C(=O)NCc2cccnc2)cc1	> 26 µM (inactive)
Cc1cc(C)c2c(N)c3cccc(C)c3nc2n1	4.47 µM
Cc1ccc(C2(c3ccc(C)cc3)CC2C(=O)Nc2ccc([N+](=O)[O-])cc2O)cc1 (stereo unspecified)	> 26 µM (inactive)
NNc1nc(-c2ccccc2)cc(-c2ccccc2O)n1	> 26 µM (inactive)
Nc1ccccc1C#CC(=O)c1ccccc1	> 26 µM (inactive)
CCCCCCCCCCOC(=O)C[N+](C)(C)C/C=C(/C)Cl	> 26 µM (inactive)
Cc1ccc(-c2[nH]ncc2/C=N/n2c(COc3ccccc3C)nc3ccccc3c2=O)cc1	> 26 µM (inactive)
COc1cc(Cl)c(NC2=CC(=O)C(=O)c3ccccc32)c(OC)c1	> 26 µM (inactive)
Oc1cccc2ccc(Nc3ccccn3)nc12	> 26 µM (inactive)
OC(CNCCC1C=Nc2ccccc21)Cn1c2ccc(Cl)cc2c2cc(Cl)ccc21 (stereo unspecified)	> 26 µM (inactive)
CCn1nc(C)c(CNC(=O)c2ccc(OC3CCN(Cc4ccccn4)CC3)cc2)c1C	> 26 µM (inactive)
NC1=C(Br)C(=O)c2ccccc2C1=O	> 26 µM (inactive)
O=C(N/N=C/c1ccccc1O)c1ccc2c(c1)OCO2	> 26 µM (inactive)
CC1=C(CO)C(=O)OC([C@@H](C)C2CC[C@H]3C4C[C@H]5O[C@]56[C@@H](O)C=CC(=O)[C@]6(C)C4CC[C@]23C)C1 (stereo partly specified)	> 26 µM (inactive)
Cc1cccc(NC(=S)Nc2ccc3cn[nH]c3c2)c1	> 26 µM (inactive)
O=C(Oc1c(CN2CCOCC2)cc(Cl)c2cccnc12)c1ccccc1Br	> 26 µM (inactive)
Cc1ccc(Sc2cc(C)nc(-c3ccccn3)n2)cc1	> 12 µM (inactive)
CC(=O)N1CCc2cc(S(=O)(=O)NCCC3=CCCCC3)ccc21	> 12 µM (inactive)
CCC1CCCCN1C(=O)c1cc(COc2ccc3ncccc3c2)on1 (stereo unspecified)	> 26 µM (inactive)
CCC(=O)NC(c1cccs1)c1ccc2cccnc2c1O (stereo unspecified)	> 26 µM (inactive)
O=C(c1cc(-c2ccccc2Cl)nc2ccccc12)N1CCN(c2ccccn2)CC1	3.83 µM
CC1(C)Cc2c(c(N3CCOCC3)nc3sc4c(NN)ncnc4c23)CS1	> 26 µM (inactive)
CCN1C/C(=C/c2ccc(OC)c(O)c2)C(=O)/C(=C/c2ccc(OC)c(O)c2)C1	> 26 µM (inactive)
CCN1CCN(Cc2ccc(NC(=O)c3cc(NC(=O)C(=O)c4c[nH]c5ccccc45)cc(OC)c3)cc2C(F)(F)F)CC1	> 26 µM (inactive)

Compound	AC50
COc1cccc(/C=N/Nc2nc3ccccc3[nH]2)c1O	> 26 µM (inactive)
CC(=O)NC(c1cc(Cl)c2cccnc2c1O)C1CC1 (stereo unspecified)	> 26 µM (inactive)
Cc1nc2ccc(NC(=O)c3cc(S(=O)(=O)N(C)c4ccccc4)ccc3Cl)cc2s1	> 26 µM (inactive)
CCc1ccc(-n2c(C)cc(/C=N/NC(=O)c3ccncc3)c2C)cc1	> 26 µM (inactive)
O=C(Nc1ccc(Cl)cc1)/C(=C/c1cccc(O)c1)c1nc2ccccc2s1	> 26 µM (inactive)
COc1cc(SC#N)ccc1N=Cc1c(C)[nH]n(-c2ccc(C)cc2)c1=O	> 26 µM (inactive)
CCN(CC)c1ccc(/C=N/NC(=O)c2ccc3nc[nH]c3c2)c(O)c1	> 26 µM (inactive)
c1ccc2c(CN3CCCCCC3)c[nH]c2c1	4.24 µM
O=C(N/N=C/c1cc(Br)cc(Cl)c1O)c1ccc2c(c1)OCO2	> 26 µM (inactive)
CCCCCCCC(=O)Nc1ccc(C(=O)N/N=C/c2cccc([N+](=O)[O-])c2)cc1	> 26 µM (inactive)
Cc1ccc(-c2c[n+]3c(n2-c2ccccc2)CCC3)cc1	> 26 µM (inactive)
CCC(C)c1ccc(NC(=S)NC2CCN(Cc3ccccc3)CC2)cc1 (stereo unspecified)	> 26 µM (inactive)
CCC(=NNC(=O)c1ccc2c(c1)nc(C)n2CC)c1cc(F)ccc1O	> 26 µM (inactive)
CCN(CC)CCn1c2ccccc2c2cnc(N)c(C#N)c21	5.57 µM
CCCSc1nsc(NC(=O)Nc2ccc(F)cc2F)n1	> 26 µM (inactive)
O=C(CCl)N(c1ccccc1)C1CCCCC1	> 26 µM (inactive)
O=C(NNc1ccnc2cc(Cl)ccc12)C1CCCCC1	> 26 µM (inactive)
O=C(NC(=S)NNC(=O)c1cnccn1)c1ccc(F)cc1	> 26 µM (inactive)
CCN(CC)c1ccc(/C=N/NC(=O)c2c(Cl)cnn2C)c(O)c1	> 26 µM (inactive)
CCC1=NN(C(=O)c2ccccc2O)C(O)(c2ccccc2)C1 (stereo unspecified)	> 26 µM (inactive)
O=C(N/N=C/c1cc(Br)c(O)c(Br)c1O)c1ccc2c(c1)OCCO2	> 26 µM (inactive)
Cc1ccccc1C(=O)Nc1cccc(C(=O)N/N=C/c2cc(Cl)cc([N+](=O)[O-])c2O)c1	> 26 µM (inactive)
Cc1nnsc1C(=O)N/N=C/c1ccc2ccccc2c1O	> 26 µM (inactive)
Cc1ccc(C(=O)N/C(=C\c2ccc(-c3ccc(Cl)cc3)o2)C(=O)NCCCN(C)C)cc1	11.9 µM
